Test [1] has as its target Serine/threonine-protein kinase MARK1 (Homo sapiens) (UniProt Q9P0L2). The test is described as follows: Selectivity interaction (KinomeScan (DiscoverX)) EUB0000607a MARK1. The following applies: at 10 µM.
The target in test [2] is T1, Tyrosine-protein kinase ITK/TSK (Homo sapiens) (UniProt Q08881).
T1 sequence (whole entry): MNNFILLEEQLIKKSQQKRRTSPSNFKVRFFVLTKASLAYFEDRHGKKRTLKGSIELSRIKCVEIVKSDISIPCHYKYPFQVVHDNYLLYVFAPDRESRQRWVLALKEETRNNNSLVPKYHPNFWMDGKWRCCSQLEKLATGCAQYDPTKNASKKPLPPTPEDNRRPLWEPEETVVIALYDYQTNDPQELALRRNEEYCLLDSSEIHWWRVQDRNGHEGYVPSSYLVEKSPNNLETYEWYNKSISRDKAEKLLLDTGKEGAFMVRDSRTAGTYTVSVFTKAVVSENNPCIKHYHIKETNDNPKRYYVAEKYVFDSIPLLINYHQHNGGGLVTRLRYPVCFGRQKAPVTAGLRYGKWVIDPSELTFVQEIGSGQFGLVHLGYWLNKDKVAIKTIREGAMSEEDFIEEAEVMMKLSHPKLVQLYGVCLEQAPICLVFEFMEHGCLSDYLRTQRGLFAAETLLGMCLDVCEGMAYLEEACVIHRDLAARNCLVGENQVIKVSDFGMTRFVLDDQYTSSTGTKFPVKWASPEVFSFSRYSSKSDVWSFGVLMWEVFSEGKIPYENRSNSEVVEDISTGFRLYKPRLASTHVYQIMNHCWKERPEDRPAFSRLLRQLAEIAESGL
Briefly: Selectivity interaction (KinomeScan (DiscoverX)) EUB0000607a ITK. The following applies: at 10 µM.

Test [3] deals with T2, Dual specificity mitogen-activated protein kinase kinase 6 (Homo sapiens) (UniProt P52564).
T2 sequence (whole entry): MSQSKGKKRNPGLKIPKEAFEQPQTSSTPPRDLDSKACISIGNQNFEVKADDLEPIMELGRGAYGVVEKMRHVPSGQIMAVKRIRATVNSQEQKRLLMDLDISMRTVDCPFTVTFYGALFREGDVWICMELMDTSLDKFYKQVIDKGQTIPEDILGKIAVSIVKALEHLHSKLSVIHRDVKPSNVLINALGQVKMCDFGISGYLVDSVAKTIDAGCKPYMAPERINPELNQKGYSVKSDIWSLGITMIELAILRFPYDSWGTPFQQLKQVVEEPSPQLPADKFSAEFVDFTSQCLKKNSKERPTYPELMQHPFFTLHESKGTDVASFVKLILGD
Briefly: Selectivity interaction (Kinase screening (Upstate/Millipore)) EUB0000604a MAP2K6.

The target of test [4] is Serine/threonine-protein kinase B-raf (Homo sapiens) (UniProt P15056). The test is described as follows: Selectivity interaction (Kinase panel (Invitrogen)) EUB0000639a BRAF. The settings on record: at 200 nM.
The target of test [5] is T3, Aurora kinase A (Homo sapiens) (UniProt O14965).
T3 sequence (whole entry): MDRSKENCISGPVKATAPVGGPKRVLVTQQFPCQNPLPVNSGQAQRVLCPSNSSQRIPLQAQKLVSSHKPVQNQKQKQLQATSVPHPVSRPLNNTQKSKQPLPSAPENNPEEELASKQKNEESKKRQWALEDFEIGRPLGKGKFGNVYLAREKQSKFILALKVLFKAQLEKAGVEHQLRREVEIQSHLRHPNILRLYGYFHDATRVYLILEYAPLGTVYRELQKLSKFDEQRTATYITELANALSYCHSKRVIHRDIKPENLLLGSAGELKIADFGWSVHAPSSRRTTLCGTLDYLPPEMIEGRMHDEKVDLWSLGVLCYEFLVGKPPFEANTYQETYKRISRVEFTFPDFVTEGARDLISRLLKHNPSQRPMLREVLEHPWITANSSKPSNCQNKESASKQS
Briefly: Selectivity interaction (ActivX KiNativ screen (kinase selectivity in THP-1 cell lysates)) EUB0000639a STK6. Type of test: subcellular. The settings on record: lysate, at 1 µM.

Test [6] concerns Hepatocyte growth factor receptor (Homo sapiens), P08581 [Y1230D]. Briefly: (§1) Selectivity interaction (ProQinase) EUB0000171b MET.
The subject of test [7] is Hepatocyte growth factor receptor (Homo sapiens), P08581 [Y1230A]. Described as §1.
The test system of test [8] is Hepatocyte growth factor receptor (Homo sapiens), P08581 [Y1230H]. The test is described as §1.
The subject of test [9] is Hepatocyte growth factor receptor (Homo sapiens), P08581 [F1200I]. Described as §1.
Test [10] deals with Hepatocyte growth factor receptor (Homo sapiens), P08581 [D1228N]. The test is described as §1.
Test [11] relates to Hepatocyte growth factor receptor (Homo sapiens), P08581 [D1228H]. The description is as §1.
Test [12] addresses Hepatocyte growth factor receptor (Homo sapiens, UniProt P08581). Described as §1.
For test [13], the system named is Hepatocyte growth factor receptor (Homo sapiens), P08581 [M1250T]. The test is described as §1.
Test [14] deals with Hepatocyte growth factor receptor (Homo sapiens), P08581 [Y1230C]. The test is described as §1.
For test [15], the system named is Hepatocyte growth factor receptor (Homo sapiens), P08581 [Y1235D]. Described as §1.
Test [16] has as its target T4, Protein kinase C iota type (Homo sapiens) (UniProt P41743).
T4 sequence (whole entry): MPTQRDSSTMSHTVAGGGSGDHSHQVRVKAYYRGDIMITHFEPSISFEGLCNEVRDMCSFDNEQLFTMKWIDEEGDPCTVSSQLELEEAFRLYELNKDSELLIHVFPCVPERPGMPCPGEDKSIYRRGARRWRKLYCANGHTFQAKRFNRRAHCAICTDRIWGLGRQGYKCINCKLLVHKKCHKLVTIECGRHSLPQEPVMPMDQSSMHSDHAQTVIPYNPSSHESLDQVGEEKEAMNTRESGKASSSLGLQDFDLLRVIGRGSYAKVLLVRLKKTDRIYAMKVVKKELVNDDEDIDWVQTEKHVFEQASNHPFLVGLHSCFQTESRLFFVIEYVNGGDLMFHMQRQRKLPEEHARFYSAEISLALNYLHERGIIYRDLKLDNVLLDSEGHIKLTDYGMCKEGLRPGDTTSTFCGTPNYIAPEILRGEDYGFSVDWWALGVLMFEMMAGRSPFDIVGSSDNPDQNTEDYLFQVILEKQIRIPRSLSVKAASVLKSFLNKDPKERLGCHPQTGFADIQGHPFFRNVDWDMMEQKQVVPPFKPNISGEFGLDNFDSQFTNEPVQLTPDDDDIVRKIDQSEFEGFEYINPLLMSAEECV
Briefly: Selectivity interaction (Ambit KINOMEscan and KiNATiv profiling in Jurkat cells) EUB0000090b PRKCI. Type of test: cell-based. The settings on record: at 1 µM.

Chain of Hepatocyte growth factor receptor (Homo sapiens), P08581 [Y1235D] (P08581 whole entry Y1235D): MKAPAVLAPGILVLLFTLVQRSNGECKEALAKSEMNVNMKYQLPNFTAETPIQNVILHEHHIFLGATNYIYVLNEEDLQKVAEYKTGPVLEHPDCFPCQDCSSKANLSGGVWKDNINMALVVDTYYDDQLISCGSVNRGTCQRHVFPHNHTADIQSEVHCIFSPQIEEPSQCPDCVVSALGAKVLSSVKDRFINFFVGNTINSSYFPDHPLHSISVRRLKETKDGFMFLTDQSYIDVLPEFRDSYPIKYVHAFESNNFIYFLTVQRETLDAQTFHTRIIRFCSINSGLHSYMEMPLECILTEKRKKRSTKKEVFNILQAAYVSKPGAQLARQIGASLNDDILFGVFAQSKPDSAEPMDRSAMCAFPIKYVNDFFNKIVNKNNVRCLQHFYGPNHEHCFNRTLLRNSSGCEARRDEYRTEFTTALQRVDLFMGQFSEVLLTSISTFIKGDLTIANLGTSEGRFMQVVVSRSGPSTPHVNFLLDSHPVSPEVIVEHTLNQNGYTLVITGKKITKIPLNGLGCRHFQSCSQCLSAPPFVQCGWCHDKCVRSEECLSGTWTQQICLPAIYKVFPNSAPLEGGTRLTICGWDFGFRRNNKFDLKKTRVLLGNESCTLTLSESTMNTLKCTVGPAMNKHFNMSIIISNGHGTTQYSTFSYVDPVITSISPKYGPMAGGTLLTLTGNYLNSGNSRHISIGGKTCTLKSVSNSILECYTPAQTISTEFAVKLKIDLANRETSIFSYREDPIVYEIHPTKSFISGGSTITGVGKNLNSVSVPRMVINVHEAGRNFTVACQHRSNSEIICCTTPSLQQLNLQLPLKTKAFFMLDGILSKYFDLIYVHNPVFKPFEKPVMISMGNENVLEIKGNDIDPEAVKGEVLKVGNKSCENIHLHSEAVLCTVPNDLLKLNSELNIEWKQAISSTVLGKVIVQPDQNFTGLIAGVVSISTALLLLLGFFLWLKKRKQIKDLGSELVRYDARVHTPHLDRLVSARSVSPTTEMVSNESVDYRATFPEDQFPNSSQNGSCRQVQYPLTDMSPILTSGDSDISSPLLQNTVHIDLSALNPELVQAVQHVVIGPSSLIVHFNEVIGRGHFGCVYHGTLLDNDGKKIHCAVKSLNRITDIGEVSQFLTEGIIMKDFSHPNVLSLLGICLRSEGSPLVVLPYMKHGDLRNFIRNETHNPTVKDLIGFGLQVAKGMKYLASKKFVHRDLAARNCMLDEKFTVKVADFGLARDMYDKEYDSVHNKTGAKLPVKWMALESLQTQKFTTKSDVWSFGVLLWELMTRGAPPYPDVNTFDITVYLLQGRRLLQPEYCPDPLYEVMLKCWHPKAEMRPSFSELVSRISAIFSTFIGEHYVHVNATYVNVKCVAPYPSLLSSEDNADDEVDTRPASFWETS
Chain of Hepatocyte growth factor receptor (Homo sapiens), P08581 [Y1230A] (P08581 whole entry Y1230A): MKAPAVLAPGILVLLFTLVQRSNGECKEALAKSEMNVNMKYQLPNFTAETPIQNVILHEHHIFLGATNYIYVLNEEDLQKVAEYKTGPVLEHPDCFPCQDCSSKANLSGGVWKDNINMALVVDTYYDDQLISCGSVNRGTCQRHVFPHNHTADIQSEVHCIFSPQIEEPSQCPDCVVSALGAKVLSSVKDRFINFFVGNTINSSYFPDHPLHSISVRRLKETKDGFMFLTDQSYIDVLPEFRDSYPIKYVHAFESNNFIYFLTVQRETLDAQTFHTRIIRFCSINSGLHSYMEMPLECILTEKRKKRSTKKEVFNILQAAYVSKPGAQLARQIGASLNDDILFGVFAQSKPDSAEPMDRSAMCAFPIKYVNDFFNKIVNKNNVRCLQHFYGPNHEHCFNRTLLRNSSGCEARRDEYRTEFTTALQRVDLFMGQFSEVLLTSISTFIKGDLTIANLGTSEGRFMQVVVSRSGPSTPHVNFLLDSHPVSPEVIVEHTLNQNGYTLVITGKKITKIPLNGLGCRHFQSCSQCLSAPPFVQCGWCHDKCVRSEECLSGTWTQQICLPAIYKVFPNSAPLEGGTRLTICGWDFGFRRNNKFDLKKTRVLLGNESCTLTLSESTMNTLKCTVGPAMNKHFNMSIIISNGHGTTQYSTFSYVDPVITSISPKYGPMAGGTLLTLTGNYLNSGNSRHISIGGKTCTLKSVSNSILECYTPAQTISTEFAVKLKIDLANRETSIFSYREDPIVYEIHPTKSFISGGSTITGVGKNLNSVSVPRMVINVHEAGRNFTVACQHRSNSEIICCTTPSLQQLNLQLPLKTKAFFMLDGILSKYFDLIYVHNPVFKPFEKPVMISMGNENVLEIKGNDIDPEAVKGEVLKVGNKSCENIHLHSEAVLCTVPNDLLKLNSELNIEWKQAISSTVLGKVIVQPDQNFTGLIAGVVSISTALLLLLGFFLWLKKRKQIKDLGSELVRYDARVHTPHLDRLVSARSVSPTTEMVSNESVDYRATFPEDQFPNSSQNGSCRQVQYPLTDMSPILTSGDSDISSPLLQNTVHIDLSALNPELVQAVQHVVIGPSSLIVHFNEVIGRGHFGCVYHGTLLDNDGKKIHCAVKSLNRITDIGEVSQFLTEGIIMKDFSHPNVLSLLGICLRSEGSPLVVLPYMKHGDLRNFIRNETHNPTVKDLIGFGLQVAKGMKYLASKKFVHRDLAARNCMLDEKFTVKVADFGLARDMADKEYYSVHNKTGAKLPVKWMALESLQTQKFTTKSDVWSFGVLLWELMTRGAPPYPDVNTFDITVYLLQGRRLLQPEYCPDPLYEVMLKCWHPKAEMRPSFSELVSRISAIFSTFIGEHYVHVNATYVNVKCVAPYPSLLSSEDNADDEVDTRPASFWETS
Chain of Hepatocyte growth factor receptor (Homo sapiens), P08581 [Y1230D] (P08581 whole entry Y1230D): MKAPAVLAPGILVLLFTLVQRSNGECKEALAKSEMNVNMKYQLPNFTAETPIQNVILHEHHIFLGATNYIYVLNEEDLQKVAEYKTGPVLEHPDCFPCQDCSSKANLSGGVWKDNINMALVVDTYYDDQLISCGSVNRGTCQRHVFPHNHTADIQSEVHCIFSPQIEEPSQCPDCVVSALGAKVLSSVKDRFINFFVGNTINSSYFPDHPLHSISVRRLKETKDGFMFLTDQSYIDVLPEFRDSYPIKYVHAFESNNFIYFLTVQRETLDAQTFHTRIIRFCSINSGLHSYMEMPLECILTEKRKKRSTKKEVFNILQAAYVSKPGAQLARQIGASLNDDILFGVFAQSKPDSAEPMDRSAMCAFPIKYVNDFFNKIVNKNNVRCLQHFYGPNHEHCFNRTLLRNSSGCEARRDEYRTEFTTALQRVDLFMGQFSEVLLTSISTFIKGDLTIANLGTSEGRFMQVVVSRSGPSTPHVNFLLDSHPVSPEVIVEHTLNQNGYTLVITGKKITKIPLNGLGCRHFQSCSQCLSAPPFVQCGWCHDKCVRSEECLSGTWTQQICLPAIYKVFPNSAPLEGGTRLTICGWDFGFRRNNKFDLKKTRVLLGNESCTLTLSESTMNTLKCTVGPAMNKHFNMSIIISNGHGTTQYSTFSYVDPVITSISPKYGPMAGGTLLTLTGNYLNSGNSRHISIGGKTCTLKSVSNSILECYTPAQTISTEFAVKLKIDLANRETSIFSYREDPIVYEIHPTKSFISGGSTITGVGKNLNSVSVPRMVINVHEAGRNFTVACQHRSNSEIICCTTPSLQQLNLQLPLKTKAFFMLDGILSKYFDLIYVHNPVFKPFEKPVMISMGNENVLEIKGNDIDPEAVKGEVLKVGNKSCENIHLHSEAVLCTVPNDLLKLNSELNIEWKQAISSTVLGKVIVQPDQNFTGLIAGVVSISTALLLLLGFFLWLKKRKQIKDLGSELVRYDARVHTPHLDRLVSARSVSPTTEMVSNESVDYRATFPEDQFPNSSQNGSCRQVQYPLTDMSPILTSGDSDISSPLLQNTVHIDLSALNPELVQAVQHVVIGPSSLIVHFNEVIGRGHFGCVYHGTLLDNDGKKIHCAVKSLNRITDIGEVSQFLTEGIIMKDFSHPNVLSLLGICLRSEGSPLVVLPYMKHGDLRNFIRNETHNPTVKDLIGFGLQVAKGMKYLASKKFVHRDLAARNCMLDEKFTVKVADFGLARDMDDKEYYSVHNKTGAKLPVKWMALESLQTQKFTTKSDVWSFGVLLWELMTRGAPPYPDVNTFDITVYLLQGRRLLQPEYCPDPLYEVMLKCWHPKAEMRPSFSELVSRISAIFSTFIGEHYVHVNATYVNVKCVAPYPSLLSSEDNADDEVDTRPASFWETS
Chain of Serine/threonine-protein kinase MARK1 (Homo sapiens) (Q9P0L2 whole entry, looked up): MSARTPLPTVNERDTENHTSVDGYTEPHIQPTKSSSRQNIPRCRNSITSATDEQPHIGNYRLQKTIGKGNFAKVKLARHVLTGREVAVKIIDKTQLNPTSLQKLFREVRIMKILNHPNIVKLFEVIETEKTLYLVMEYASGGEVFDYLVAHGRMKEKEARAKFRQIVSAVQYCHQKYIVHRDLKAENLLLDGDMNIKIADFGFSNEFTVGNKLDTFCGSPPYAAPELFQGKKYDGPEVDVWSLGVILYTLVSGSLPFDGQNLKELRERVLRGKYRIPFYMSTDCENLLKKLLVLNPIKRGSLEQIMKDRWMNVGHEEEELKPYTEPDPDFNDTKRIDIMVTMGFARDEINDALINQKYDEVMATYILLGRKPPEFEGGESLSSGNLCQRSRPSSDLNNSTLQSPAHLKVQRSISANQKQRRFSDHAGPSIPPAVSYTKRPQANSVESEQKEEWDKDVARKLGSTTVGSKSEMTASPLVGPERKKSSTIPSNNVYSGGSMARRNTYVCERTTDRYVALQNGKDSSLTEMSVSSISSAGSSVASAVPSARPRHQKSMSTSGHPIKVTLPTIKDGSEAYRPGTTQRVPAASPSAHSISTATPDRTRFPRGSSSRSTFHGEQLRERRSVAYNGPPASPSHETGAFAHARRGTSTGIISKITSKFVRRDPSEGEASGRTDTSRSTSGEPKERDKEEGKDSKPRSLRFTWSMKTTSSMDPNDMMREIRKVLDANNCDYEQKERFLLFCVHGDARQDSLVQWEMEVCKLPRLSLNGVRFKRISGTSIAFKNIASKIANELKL

Consider `CNC(=O)Nc1ccc(-c2nc(N3CC4CCC(C3)O4)c3cnn(C4CCC5(CC4)OCCO5)c3n2)cc1`, for which the % of control in [1] turned out to be 100%; in test [2], 88%.
Regarding `Cc1cnc(Nc2ccc(F)cc2Cl)nc1-c1c[nH]c(C(=O)N[C@H](CO)c2cccc(Cl)c2)c1`, the % of inhibition in test [3] worked out at 9%.
Take `CC[C@@H]1[C@H](F)C(=O)N[C@@H]1COc1nccc2cc(C(N)=O)c(OC)cc12` [ZIMLOVISERTIB]: the % of inhibition in [4] was determined as 0.492%; in [5] it was 20%.
For `C=CC(=O)Nc1cccc(C(=O)Nc2ccc(Nc3cc(-c4[nH]c(SC)nc4C)ccn3)cc2)c1`, the % of control in [6] (at 1 µM) is 88%; in test [6] (at 5 µM) it was 73%; in test [7] (at 1 µM), 97%; in test [7] (at 5 µM), 85%; in [8] (at 1 µM), 92%; in test [8] (at 5 µM), 72%. Also, the % of control was found to be 81% in [9] (at 1 µM); 59% in [9] (at 5 µM); 89% in test [10] (at 1 µM); 74% in [10] (at 5 µM); 76% in [11] (at 1 µM); 65% in [11] (at 5 µM). The % of control in test [12] (at 1 µM) was found to be 93%; in test [12] (at 5 µM) it was 78%; in test [13] (at 1 µM), 88%; in test [13] (at 5 µM), 65%; in test [14] (at 1 µM), 90%; in test [14] (at 5 µM), 76%. For the same compound, the % of control turned out to be 105% in test [15] (at 1 µM) and 86% in test [15] (at 5 µM).
Compound `CN(C)C/C=C/C(=O)Nc1ccc(C(=O)N2CCCC(Nc3ncc(Cl)c(-c4c[nH]c5ccccc45)n3)C2)cc1` (stereo unspecified) showed a % of control in test [16] of 98%.

Values taken from ChEMBL document CHEMBL5465560, “Selectivity Literature for EUbOPEN Chemogenomic Library” (2024).
